Laboratory results published in BigSolDB 2.1.

CC(C)C[C@H](CN)CC(=O)O
solubility (mole fraction)
Conditions	in acetonitrile	in ethanol	in ethyl acetate	in isobutanol	in isopropanol	in methanol	in n-butanol	in n-propanol
278.15 K	0.000572	0.00115	0.00164	0.00126	9.1e-05	0.00112	0.00093	0.00109
283.15 K	0.000624	0.00149	0.00195	0.00136	0.000125	0.00153	0.00152	0.00144
288.15 K	0.000695	0.00188	0.00237	0.00146	0.000163	0.00198	0.00213	0.00185
293.15 K	0.00076	0.00235	0.00271	0.00159	0.000214	0.00242	0.00282	0.00241
298.15 K	0.000821	0.00272	0.00331	0.00173	0.000253	0.00273	0.00354	0.00277
303.15 K	0.000885	0.00321	0.00374	0.00184	0.000281	0.0033	0.00416	0.0032
308.15 K	0.000931	0.00369	0.00429	0.00194	0.000314	0.00399	0.00487	0.00368
313.15 K	0.000988	0.00424	0.00488	0.002	0.000362	0.00465	0.00551	0.00412
318.15 K	0.00106	0.00501	0.00547	0.00209	0.000419	0.00542	0.00619	0.00466
323.15 K	0.00113	0.00575	0.00589	0.00219	0.000461	0.00602	0.00677	0.00501
328.15 K	0.00118	0.00634	0.00631	0.00226	0.000513	0.00671	0.00731	0.00542
333.15 K	0.00123	0.00711	0.00674	0.00234	0.000585	0.00753	0.00793	0.00603
